Reference: PubChem BioAssay AID1259411 (Chemical Carcinogenesis Research Information System (CCRIS), 2018)
Activity calls are given as the source filed them. How the calls were made is not given here.

System: rodent carcinogenicity bioassays, tumor incidence
Experiment: CCRIS carcinogenicity studies
Conditions: Dose: 0, Dose: 0
Outline: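 Archive of carcinogenicity, mutagenicity, tumor promotion and tumor inhibition results drawn from journals, NCI reports and other sources, expert-reviewed; covers 1985-2011 and is no longer updated.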

Q: Which carcinogen call (Species: MOUSE, Strain/Sex: B6C3F1/FEMALE, Route: GAVAGE, 30, 60, 120 MG/KG IN CORN OIL 5 D/WK FOR DURATION OF STUDY (STUDY DURATION: 105 WK), 30, 60, 120 MG/KG IN CORN OIL 5 D/WK FOR DURATION OF STUDY (STUDY DURATION: 105 WK), Tumor Site: Type of Lesion: FORESTOMACH: SQUAMOUS CELL PAPILLOMA, SQUAMOUS CELL CARCINOMA, SQUAMOUS CELL PAPILLOMA OR CARCINOMA) does the source give for `C/C=C/C=C/C=O` here?
A: active; positive

Q: What about the carcinogen call (Species: MOUSE, Strain/Sex: B6C3F1/MALE, Route: GAVAGE, 30, 60, 120 MG/KG IN CORN OIL 5 D/WK FOR DURATION OF STUDY (STUDY DURATION: 105 WK), 30, 60, 120 MG/KG IN CORN OIL 5 D/WK FOR DURATION OF STUDY (STUDY DURATION: 105 WK), Tumor Site: Type of Lesion: FORESTOMACH: SQUAMOUS CELL PAPILLOMA, SQUAMOUS CELL CARCINOMA, SQUAMOUS CELL PAPILLOMA OR CARCINOMA) of the same molecule?
A: active; positive

Q: And the carcinogen call (Species: RAT, Strain/Sex: F344/FEMALE, Route: GAVAGE, 22.5, 45, 90 MG/KG IN CORN OIL 5 D/WK FOR DURATION OF STUDY (STUDY DURATION: 105 WK), 22.5, 45, 90 MG/KG IN CORN OIL 5 D/WK FOR DURATION OF STUDY (STUDY DURATION: 105 WK), Tumor Site: Type of Lesion: FORESTOMACH: SQUAMOUS CELL PAPILLOMA)?
A: active; positive

Q: And the carcinogen call (Species: RAT, Strain/Sex: F344/MALE, Route: GAVAGE, 22.5, 45, 90 MG/KG IN CORN OIL 5 D/WK FOR DURATION OF STUDY (STUDY DURATION: 105 WK), 22.5, 45, 90 MG/KG IN CORN OIL 5 D/WK FOR DURATION OF STUDY (STUDY DURATION: 105 WK), Tumor Site: Type of Lesion: FORESTOMACH: SQUAMOUS CELL PAPILLOMA, SQUAMOUS CELL CARCINOMA, SQUAMOUS CELL PAPILLOMA OR CARCINOMA)?
A: active; positive

Q: With `CN(C)CCOC(c1ccccc1)c1ccccc1` as the molecule, how does the carcinogen call (Species: MOUSE, Strain/Sex: B6C3F1/FEMALE, Route: ORAL, 156, 313 PPM IN FEED FOR 103 WK (STUDY DURATION: 106 WK), 156, 313 PPM IN FEED FOR 103 WK (STUDY DURATION: 106 WK)) read?
A: inactive; negative

Q: What about the carcinogen call (Species: MOUSE, Strain/Sex: B6C3F1/MALE, Route: ORAL, 156, 313 PPM IN FEED FOR 105 WK (STUDY DURATION: 106 WK), 156, 313 PPM IN FEED FOR 105 WK (STUDY DURATION: 106 WK)) of the same molecule?
A: inactive; negative

Q: And the carcinogen call (Species: RAT, Strain/Sex: F344/FEMALE, Route: ORAL, 156, 313 PPM IN FEED FOR 103 WK (STUDY DURATION: 106 WK), 156, 313 PPM IN FEED FOR 103 WK (STUDY DURATION: 106 WK), Tumor Site: Type of Lesion: PITUITARY GLAND: ADENOMA)?
A: equivocal

Q: What about the carcinogen call (Species: RAT, Strain/Sex: F344/FEMALE, Route: ORAL, 2000 PPM IN DIET FOR 106 WK (STUDY DURATION: 130 WK)) of the same molecule?
A: inactive; negative

Q: And the carcinogen call (Species: RAT, Strain/Sex: F344/MALE, Route: ORAL, 313, 625 PPM IN FEED FOR 103 WK (STUDY DURATION: 106 WK), 313, 625 PPM IN FEED FOR 103 WK (STUDY DURATION: 106 WK), Tumor Site: Type of Lesion: BRAIN: ASTROCYTOMA OR GLIOMA, LUNG: ALVEOLAR/BRONCHIOLAR ADENOMA OR CARCINOMA)?
A: equivocal

Q: And the carcinogen call (Species: RAT, Strain/Sex: F344/MALE, Route: ORAL, 2000 PPM IN DIET FOR 106 WK (STUDY DURATION: 130 WK))?
A: inactive; negative

Q: For `O=[N+]([O-])c1cc2cccc3ccc4cccc1c4c32`, which carcinogen call (Species: RAT, Strain/Sex: STRAIN-CD/FEMALE, Route: INJECTION, 0.1 ML IN 20.3 UMOL/ML DMSO INJECTED INTO MAMMARY TISSUE OF THE 3 LEFT THORACIC NIPPLES FOLLOWED THE NEXT D BY SIMILA, Tumor Site: Type of Lesion: MAMMARY GLAND: FIBROADENOMA, ADENOCARCINOMA) is on record?
A: active; positive

Q: What about the carcinogen call (Species: RAT, Strain/Sex: STRAIN-CD/FEMALE, Route: INJECTION, 0.1 ML OF A 20.3 UMOL/ML SOLUTION IN DMSO INJECTED INTO MAMMARY TISSUE UNDERLYING 3 LEFT THORACIC NIPPLES THE FOLLOWI, Tumor Site: Type of Lesion: MAMMARY GLAND: FIBROADENOMA) of the same molecule?
A: active; positive

Q: And the carcinogen call (Species: RAT, Strain/Sex: STRAIN-CD/FEMALE, Route: INTRAPERITONEAL, 67 UMOL/KG BW IN DMSO 3/WK FOR 4 WK (STUDY DURATION: 61 WK), Tumor Site: Type of Lesion: MAMMARY GLAND: ADENOCARCINOMA)?
A: active; positive

Q: What about the carcinogen call (Species: RAT, Strain/Sex: STRAIN-CD/FEMALE, Route: INTRAPERITONEAL, 67 UMOL/KG/BW IN 25 UMOL/ML DMSO 3/WK FOR 4 WK (TOTAL DOSE: 0; 119 UMOL) ADMINISTERED TO WEANLING RATS (STUDY DURATIO, 67 UMOL/KG/BW IN 25 UMOL/ML DMSO 3/WK FOR 4 WK (TOTAL DOSE: 0; 119 UMOL) ADMINISTERED TO WEANLING RATS (STUDY DURATIO, Tumor Site: Type of Lesion: MAMMARY GLAND: ADENOCARCINOMA) of the same molecule?
A: active; positive

Q: And the carcinogen call (Species: RAT, Strain/Sex: STRAIN-CD/FEMALE, Route: SUBCUTANEOUS, 75 UMOL (TOTAL DOSE) ADMINISTERED OVER 8 WK BEGINNING WITHIN 24 HR OF BIRTH (STUDY DURATION: 86 WK), Tumor Site: Type of Lesion: MAMMARY GLAND: TUMOR, INTEGUMENTARY SYSTEM: MALIGNANT FIBROUS HISTIOCYTOMA, HEMATOPOIETIC SYSTEM: LEUKEMIA, ZYMBAL GLAND, Tumor Site: Type of Lesion: MAMMARY GLAND: TUMOR, INTEGUMENTARY SYSTEM: MALIGNANT FIBROUS HISTIOCYTOMA, HEMATOPOIETIC SYSTEM: LEUKEMIA, ZYMBAL GLAND)?
A: active; positive

Q: Which results are given for `NNC(=O)c1ccccc1`?
A: carcinogen call (Species: MOUSE, Strain/Sex: SWISS/FEMALE, Route: ORAL, 0.1% SOLUTION IN DRINKING WATER STARTING AT 6 WK OF AGE AND CONTINUED FOR LIFE FOR AN AVERAGE DAILY INTAKE OF 0, 0.57, 0.1% SOLUTION IN DRINKING WATER STARTING AT 6 WK OF AGE AND CONTINUED FOR LIFE FOR AN AVERAGE DAILY INTAKE OF 0, 0.57, Tumor Site: Type of Lesion: LUNG: ADENOMA, LUNG: ADENOMA AND ADENOCARCINOMA): active; positive; carcinogen call (Species: MOUSE, Strain/Sex: SWISS/MALE, Route: ORAL, 0.01% SOLUTION IN DRINKING WATER STARTING AT 6 WK OF AGE AND CONTINUED FOR LIFE FOR AN AVERAGE DAILY INTAKE OF 0, 0.8, 0.01% SOLUTION IN DRINKING WATER STARTING AT 6 WK OF AGE AND CONTINUED FOR LIFE FOR AN AVERAGE DAILY INTAKE OF 0, 0.8, Tumor Site: Type of Lesion: LUNG: ADENOMA, LUNG: ADENOMA AND ADENOCARCINOMA): active; positive

Q: Which results are given for `O=S(=O)(O)c1cc(S(=O)(=O)O)c2c(N=Nc3ccccc3)c(O)ccc2c1`?
A: carcinogen call (Species: MOUSE, Strain/Sex: B6C3F1/FEMALE, Route: ORAL, 3000, 6000 PPM IN DIET FOR 103 WK (STUDY DURATION: 104 WK), 3000, 6000 PPM IN DIET FOR 103 WK (STUDY DURATION: 104 WK)): inactive; negative; carcinogen call (Species: MOUSE, Strain/Sex: B6C3F1/MALE, Route: ORAL, 3000, 6000 PPM IN DIET FOR 103 WK (STUDY DURATION: 104 WK), 3000, 6000 PPM IN DIET FOR 103 WK (STUDY DURATION: 104 WK)): inactive; negative; carcinogen call (Species: RAT, Strain/Sex: F344/FEMALE, Route: ORAL, 1000, 3000 PPM IN DIET FOR 103 WK (STUDY DURATION: 104 WK), 1000, 3000 PPM IN DIET FOR 103 WK (STUDY DURATION: 104 WK)): inactive; negative; carcinogen call (Species: RAT, Strain/Sex: F344/MALE, Route: ORAL, 1000, 3000 PPM IN DIET FOR 103 WK (STUDY DURATION: 104 WK), 1000, 3000 PPM IN DIET FOR 103 WK (STUDY DURATION: 104 WK)): inactive; negative

Q: What does the source list for `O[C@H]1CCc2c(ccc3cc4ccc5ccccc5c4nc23)[C@@H]1O`?
A: carcinogen call (Species: MOUSE, Strain/Sex: CD-1/FEMALE, Route: INTRAPERITONEAL, 175 NMOL (TOTAL DOSE) ADMINISTERED AS 1/7 OF DOSE WITHIN 24 HR AFTER BIRTH, 2/7 OF DOSE AT 8 D OLD, 4/7 OF DOSE AT 15): inactive; negative; carcinogen call (Species: MOUSE, Strain/Sex: CD-1/MALE, Route: INTRAPERITONEAL, 175 NMOL (TOTAL DOSE) ADMINISTERED AS 1/7 OF DOSE WITHIN 24 HR AFTER BIRTH, 2/7 OF DOSE AT 8 D OLD, 4/7 OF DOSE AT 15): inactive; negative
